Tests used:
human GLP-1 receptor = target: T1, human GLP-1 receptor (Homo sapiens, UniProt P43220); assay: cAMP production, CHO cells expressing GLP-1 receptor; type: cell-based; conditions: 10 μM forskolin, 15 min, 37°C, P < .001
T1 construct: expressed in transfected cells; host or cells: CHO cells, transient transfection, pcDNA3
Experimental: (§1) Cells were plated in 6-well plates at 50 × 10^4 cells/well and incubated 24 hours in growth medium supplemented with 10% fetal bovine serum.
(§2) After stimulation, stimulating buffer was removed and replaced with 150 μL of TE buffer (50 mM Tris, 5 mM EDTA, pH = 7.4). Cells were lysed by scraping, followed by boiling at 100°C for 5 minutes and centrifuged at 16000× g for 10 minutes. The supernatant was collected and the total content of cAMP was measured by a specific radioimmunoassay (Amersham).
(§3) Statistical analysis (one-way ANOVA) was carried out by Prism 4 computer program (GraphPad Software, USA), which was used also for graphical presentation of the results. In ANOVA analysis Tukey-Kramer multiple comparison test was used to reveal significant differences between groups of interest; P > .05 was not considered significant.

GFP-GLP-1 receptor = target: T2, GFP-GLP-1 receptor (Homo sapiens, UniProt P43220); assay: cAMP production, CHO cells expressing GFP-GLP-1 receptor; type: cell-based; conditions: 10 μM forskolin, 15 min, 37°C
T2 construct: linker: translated MCS of pEGFP-C3 plus translated 5'-untranslated region of clone hGLPR-6(20), between EGFP and the receptor (N); expressed in transfected cells; host or cells: CHO cells, transient transfection, pEGFP-C3
Experimental: as §1, §2, §3

C=C[C@@]1(C)CC(=O)[C@]2(O)[C@@]3(C)[C@@H](O)CCC(C)(C)[C@@H]3[C@H](O)[C@H](OC(C)=O)[C@@]2(C)O1 [forskolin]
cAMP production in response to forskolin (in words) (human GLP-1 receptor): significantly increased
cAMP production in response to forskolin (in words) (GFP-GLP-1 receptor; CHO cells expressing GFP-GLP-1 receptor, P < .001): significantly increased
Sensitivity to forskolin of GFP-GLP-1 receptor cells in comparison to GLP-1 receptor cells (in words) (GFP-GLP-1 receptor; Tukey-Kramer test): not more sensitive

— PMC2765688, “Functional Characterization of N-Terminally GFP-Tagged GLP-1 Receptor” (Journal of Biomedicine and Biotechnology, 2009)
